From ChEMBL document CHEMBL4311943, “3-[(1S,2S,3R)-2,3-Difluoro-1-hydroxy-7-methylsulfonylindan-4-yl]oxy-5-fluorobenzonitrile (PT2977), a Hypoxia-Inducible Factor 2α (HIF-2α) Inhibitor for the Treatment of Clear Cell Renal Cell Carcinoma” (J Med Chem, 2019)
pIC50: −log10 of the molar value. Active and inactive are the calls of the source. No cut-off for these calls is given here.

Tests used:
[1] = test system: 786-0; experiment: Antitumor activity against human 786-O cells xenografted in SCID Beige mouse assessed as tumor regression at 0.3 to 3 mg/kg, po administered twice daily via gavage for 3 days measured 12 hrs post-last; type: functional, organism-based
[2] = molecular target: Muscarinic acetylcholine receptor M3 (Homo sapiens) (UniProt P20309); experiment: Activity at human M3 receptor at 10 uM
[3] = molecular target: Endothelin-1 receptor (Homo sapiens) (UniProt P25101); experiment: Activity at human ETA receptor at 10 uM
[4] = Dose normalized AUClast in Sprague-Dawley rat at 10 mg/kg, po administered via gavage by UPLC-MS analysis; type: ADME, organism-based; conditions: in vivo
[5] = molecular target: Lysophosphatidic acid receptor 1 (Homo sapiens) (UniProt Q92633); experiment: Activity at human LPA1 receptor at 10 uM
Chain of Lysophosphatidic acid receptor 1 (Homo sapiens) (Q92633 whole entry): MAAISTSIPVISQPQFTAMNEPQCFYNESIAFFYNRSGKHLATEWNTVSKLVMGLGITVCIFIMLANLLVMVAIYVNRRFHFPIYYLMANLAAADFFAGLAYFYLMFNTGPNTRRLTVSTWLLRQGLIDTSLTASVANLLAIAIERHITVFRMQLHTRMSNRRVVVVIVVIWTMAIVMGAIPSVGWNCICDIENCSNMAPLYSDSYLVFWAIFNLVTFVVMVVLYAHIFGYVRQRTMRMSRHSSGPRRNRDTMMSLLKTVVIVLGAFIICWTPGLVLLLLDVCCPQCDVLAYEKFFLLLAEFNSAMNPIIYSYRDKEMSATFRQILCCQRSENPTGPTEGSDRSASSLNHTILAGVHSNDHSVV

[6] = molecular target: Beta-1 adrenergic receptor (Homo sapiens) (UniProt P08588); experiment: Activity at human beta1 receptor at 10 uM
[7] = molecular target: Rho-associated protein kinase 2 (Homo sapiens) (UniProt O75116); experiment: Activity at human ROCK2 at 10 uM
[8] = molecular target: P2Y purinoceptor 1 (Homo sapiens) (UniProt P47900); experiment: Activity at human P2Y1 receptor at 10 uM
[9] = Dose normalized AUClast in monkey at 5 mg/kg, po administered via gavage by UPLC-MS analysis; type: ADME, organism-based, Macaca mulatta; conditions: rhesus monkey, in vivo
[10] = molecular target: CDK9/cyclin T1 (Homo sapiens) (UniProt O60563+P50750); experiment: Activity at human CDK9/cyclinT1 at 10 uM; type: protein-complex assay
[11] = molecular target: Serine/threonine-protein kinase STK11 (Homo sapiens) (UniProt Q15831); experiment: Activity at human LKB1 at 10 uM
[12] = Cmax in patient with advanced solid tumor at 160 mg, po administered once daily measured on day 15; type: ADME, organism-based; set-up: dose 160 mg, route oral; conditions: human, in vivo
[13] = molecular target: Sodium channel protein type 5 subunit alpha (Homo sapiens, UniProt Q14524); experiment: Activity at human Nav1.5 at 10 uM
Chain of Sodium channel protein type 5 subunit alpha (Q14524 whole entry): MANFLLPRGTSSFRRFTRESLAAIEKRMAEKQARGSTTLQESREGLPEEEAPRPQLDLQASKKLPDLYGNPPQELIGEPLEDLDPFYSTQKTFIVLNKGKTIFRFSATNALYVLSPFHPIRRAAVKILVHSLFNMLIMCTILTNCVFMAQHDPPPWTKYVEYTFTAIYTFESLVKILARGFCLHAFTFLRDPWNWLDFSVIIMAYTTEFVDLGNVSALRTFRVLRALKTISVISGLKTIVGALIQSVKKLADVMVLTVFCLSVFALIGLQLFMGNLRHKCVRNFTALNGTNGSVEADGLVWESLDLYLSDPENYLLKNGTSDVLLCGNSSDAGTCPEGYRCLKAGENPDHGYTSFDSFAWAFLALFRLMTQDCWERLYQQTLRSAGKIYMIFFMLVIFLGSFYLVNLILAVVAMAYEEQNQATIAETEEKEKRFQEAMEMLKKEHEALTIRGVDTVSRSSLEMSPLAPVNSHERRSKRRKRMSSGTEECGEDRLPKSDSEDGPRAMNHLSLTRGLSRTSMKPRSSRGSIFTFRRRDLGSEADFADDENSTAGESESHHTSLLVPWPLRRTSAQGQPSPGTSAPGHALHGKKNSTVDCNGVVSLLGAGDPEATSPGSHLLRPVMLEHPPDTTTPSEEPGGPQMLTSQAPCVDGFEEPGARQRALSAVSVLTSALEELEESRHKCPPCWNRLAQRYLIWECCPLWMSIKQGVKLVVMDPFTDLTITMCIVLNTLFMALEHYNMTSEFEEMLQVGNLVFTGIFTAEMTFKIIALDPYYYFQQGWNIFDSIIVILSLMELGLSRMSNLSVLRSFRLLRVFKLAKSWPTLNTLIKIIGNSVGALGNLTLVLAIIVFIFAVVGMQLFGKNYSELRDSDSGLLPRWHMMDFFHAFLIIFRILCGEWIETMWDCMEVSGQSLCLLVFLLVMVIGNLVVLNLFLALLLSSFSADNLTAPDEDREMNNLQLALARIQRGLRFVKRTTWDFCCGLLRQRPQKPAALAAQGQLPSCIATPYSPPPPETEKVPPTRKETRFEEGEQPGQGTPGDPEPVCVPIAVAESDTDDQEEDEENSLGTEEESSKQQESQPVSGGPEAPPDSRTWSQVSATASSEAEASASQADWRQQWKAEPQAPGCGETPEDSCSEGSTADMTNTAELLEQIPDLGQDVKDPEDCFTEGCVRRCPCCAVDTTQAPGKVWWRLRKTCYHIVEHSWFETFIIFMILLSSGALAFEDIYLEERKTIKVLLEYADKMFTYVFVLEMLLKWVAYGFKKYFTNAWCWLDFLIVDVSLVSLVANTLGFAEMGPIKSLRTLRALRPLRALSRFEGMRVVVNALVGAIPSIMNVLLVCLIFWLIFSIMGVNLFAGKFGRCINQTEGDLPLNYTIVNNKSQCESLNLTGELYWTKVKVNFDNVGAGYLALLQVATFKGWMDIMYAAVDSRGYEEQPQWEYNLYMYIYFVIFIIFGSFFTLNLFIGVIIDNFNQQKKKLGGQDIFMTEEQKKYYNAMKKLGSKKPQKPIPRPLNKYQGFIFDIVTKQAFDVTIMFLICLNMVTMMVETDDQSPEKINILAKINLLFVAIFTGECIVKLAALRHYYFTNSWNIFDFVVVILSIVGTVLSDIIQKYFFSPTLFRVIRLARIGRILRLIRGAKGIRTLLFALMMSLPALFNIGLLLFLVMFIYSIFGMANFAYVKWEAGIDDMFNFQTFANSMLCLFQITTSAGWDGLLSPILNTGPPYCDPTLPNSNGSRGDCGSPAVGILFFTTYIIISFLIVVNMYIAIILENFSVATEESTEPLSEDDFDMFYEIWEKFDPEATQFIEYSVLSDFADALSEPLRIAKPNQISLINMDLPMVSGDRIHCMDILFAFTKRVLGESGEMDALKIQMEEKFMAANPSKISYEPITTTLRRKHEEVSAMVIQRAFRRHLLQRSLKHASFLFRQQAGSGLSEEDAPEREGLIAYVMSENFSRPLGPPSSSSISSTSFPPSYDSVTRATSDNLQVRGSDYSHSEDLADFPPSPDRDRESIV

[14] = molecular target: Serine/threonine-protein kinase D1 (Homo sapiens) (UniProt Q15139); experiment: Activity at human PKCmu at 10 uM
[15] = test system: Homo sapiens; experiment: In vivo inhibition of HIF-2alpha in po dosed patient with advanced solid tumor assessed as reduction in EPO expression administered once daily; type: organism-based
[16] = molecular target: Muscarinic acetylcholine receptor M1 (Homo sapiens) (UniProt P11229); experiment: Activity at human M1 receptor at 10 uM
[17] = molecular target: cGMP-dependent protein kinase 1 (Homo sapiens) (UniProt Q13976); experiment: Activity at human PKG1beta at 10 uM
Chain of cGMP-dependent protein kinase 1 (Homo sapiens) (Q13976 whole entry): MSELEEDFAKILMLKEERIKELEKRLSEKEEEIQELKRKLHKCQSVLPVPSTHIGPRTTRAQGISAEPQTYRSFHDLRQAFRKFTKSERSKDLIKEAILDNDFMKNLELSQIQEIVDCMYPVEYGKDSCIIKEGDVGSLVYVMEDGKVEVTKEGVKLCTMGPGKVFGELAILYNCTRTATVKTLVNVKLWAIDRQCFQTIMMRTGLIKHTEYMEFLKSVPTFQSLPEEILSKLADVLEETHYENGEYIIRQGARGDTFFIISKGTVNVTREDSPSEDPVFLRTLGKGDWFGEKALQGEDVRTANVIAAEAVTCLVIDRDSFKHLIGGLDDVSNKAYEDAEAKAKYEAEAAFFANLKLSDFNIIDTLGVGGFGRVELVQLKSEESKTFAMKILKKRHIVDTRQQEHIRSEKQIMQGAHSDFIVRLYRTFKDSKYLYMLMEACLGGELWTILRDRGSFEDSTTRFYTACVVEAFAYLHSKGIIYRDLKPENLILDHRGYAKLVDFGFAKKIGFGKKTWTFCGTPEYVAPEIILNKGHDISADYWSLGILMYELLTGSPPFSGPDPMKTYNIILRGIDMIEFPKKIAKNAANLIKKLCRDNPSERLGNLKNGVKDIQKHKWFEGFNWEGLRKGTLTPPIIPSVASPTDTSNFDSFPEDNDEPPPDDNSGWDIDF

[18] = molecular target: Somatostatin receptor type 4 (Homo sapiens) (UniProt P31391); experiment: Activity at human SST4 receptor at 10 uM
[19] = Plasma concentration in patient with advanced solid tumor at 80 mg, po administered once daily measured on day 15 after 24 hrs; type: ADME, organism-based; conditions: human
[20] = Plasma concentration in patient with advanced solid tumor at 120 mg, po administered once daily measured on day 15 after 24 hrs; type: ADME, organism-based; conditions: human
[21] = molecular target: T1, Voltage-gated inwardly rectifying potassium channel KCNH2 (Homo sapiens, UniProt Q12809); experiment: Inhibition of human ERG expressed in mammalian expression system by Q-patch clamp electrophysiology method
T1 sequence (Q12809 whole entry): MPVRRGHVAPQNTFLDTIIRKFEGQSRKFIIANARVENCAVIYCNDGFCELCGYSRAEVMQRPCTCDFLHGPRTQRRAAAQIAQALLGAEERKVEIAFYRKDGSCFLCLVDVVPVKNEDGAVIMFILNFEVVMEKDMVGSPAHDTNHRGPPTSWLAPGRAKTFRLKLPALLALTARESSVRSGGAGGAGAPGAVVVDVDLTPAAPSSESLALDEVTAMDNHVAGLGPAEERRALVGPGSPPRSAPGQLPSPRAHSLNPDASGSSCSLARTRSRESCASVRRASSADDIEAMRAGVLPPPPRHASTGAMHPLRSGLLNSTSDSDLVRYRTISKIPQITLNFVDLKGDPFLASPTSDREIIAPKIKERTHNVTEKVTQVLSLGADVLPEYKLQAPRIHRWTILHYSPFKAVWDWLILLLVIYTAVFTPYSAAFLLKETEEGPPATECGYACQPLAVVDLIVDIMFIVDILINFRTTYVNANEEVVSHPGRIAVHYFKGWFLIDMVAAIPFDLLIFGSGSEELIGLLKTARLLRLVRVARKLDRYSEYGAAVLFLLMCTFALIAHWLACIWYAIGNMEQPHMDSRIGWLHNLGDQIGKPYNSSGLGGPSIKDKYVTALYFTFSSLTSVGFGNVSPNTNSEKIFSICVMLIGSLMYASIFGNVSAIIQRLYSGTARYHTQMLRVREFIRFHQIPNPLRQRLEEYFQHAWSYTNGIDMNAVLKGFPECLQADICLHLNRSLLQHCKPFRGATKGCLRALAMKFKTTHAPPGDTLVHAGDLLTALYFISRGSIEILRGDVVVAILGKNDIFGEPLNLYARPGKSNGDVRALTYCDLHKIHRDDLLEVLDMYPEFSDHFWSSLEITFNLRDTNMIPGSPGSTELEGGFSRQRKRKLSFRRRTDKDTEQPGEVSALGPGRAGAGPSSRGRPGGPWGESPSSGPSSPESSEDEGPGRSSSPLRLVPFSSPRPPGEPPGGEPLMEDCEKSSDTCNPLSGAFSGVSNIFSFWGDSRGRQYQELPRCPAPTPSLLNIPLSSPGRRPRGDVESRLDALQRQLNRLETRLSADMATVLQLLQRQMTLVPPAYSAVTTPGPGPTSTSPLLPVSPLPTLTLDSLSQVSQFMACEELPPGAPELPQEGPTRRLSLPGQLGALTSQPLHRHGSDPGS

[22] = Plasma concentration in patient with advanced solid tumor at 240 mg, po administered once daily measured on day 15 after 24 hrs; type: ADME, organism-based; conditions: human
[23] = molecular target: Protein kinase C delta type (Homo sapiens) (UniProt Q05655); experiment: Activity at human PKCdelta at 10 uM
[24] = molecular target: D(1B) dopamine receptor (Homo sapiens) (UniProt P21918); experiment: Activity at human D5 receptor at 10 uM
[25] = molecular target: Adenosine receptor A3 (Homo sapiens) (UniProt P0DMS8); experiment: Activity at human adenosine A3 receptor at 10 uM
[26] = molecular target: 5'-AMP-activated protein kinase catalytic subunit alpha-1 (Homo sapiens) (UniProt Q13131); experiment: Activity at human AMPKalpha1 at 10 uM
[27] = species on record: Homo sapiens; experiment: Activity at human PKA at 10 uM
[28] = molecular target: C-C chemokine receptor type 2 (Homo sapiens) (UniProt P41597); experiment: Activity at human CCR2B receptor at 10 uM
[29] = species on record: Homo sapiens; experiment: Activity at human Proteinase activated receptor at 10 uM
[30] = molecular target: Inward rectifier potassium channel 2 (Homo sapiens, UniProt P63252); experiment: Activity at human Kir2.1 at 10 uM
Chain of Inward rectifier potassium channel 2 (P63252 whole entry): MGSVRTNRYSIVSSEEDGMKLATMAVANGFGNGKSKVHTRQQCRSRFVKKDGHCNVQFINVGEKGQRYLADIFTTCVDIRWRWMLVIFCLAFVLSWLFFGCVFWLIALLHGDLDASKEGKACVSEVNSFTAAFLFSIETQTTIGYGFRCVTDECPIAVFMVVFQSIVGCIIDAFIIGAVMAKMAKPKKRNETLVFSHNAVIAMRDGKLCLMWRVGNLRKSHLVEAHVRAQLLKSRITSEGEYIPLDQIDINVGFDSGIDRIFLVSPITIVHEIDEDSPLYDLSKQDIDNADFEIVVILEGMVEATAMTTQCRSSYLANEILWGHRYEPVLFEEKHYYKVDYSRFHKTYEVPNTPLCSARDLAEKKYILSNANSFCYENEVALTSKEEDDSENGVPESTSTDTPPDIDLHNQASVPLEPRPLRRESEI

[31] = molecular target: Type-1 angiotensin II receptor (Homo sapiens) (UniProt P30556); experiment: Activity at human AT1 receptor at 10 uM
[32] = molecular target: T1, Voltage-gated inwardly rectifying potassium channel KCNH2; experiment: Activity at human ERG at 10 uM
[33] = molecular target: C-X-C chemokine receptor type 1 (Homo sapiens) (UniProt P25024); experiment: Activity at human CXCR1 receptor at 10 uM
Chain of C-X-C chemokine receptor type 1 (Homo sapiens) (P25024 whole entry): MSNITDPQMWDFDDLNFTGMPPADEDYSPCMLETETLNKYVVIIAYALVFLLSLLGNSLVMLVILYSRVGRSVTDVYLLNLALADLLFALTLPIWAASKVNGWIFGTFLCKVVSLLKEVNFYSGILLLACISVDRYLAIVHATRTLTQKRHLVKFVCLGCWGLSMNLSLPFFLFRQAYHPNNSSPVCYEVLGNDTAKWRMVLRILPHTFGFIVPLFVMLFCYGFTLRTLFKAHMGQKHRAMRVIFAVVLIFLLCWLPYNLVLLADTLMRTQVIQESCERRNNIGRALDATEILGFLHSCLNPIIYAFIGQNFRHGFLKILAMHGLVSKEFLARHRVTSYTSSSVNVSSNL

[34] = molecular target: Protein kinase C theta type (Homo sapiens) (UniProt Q04759); experiment: Activity at human PKCtheta at 10 uM
[35] = molecular target: Lysophosphatidic acid receptor 3 (Homo sapiens) (UniProt Q9UBY5); experiment: Activity at human LPA3 receptor at 10 uM
[36] = Half life in patient with advanced solid tumor at 160 mg, po administered once daily measured on day 15; type: ADME, organism-based; conditions: human, in vivo
[37] = molecular target: T2, UDP-glucuronosyltransferase 2B17 (Homo sapiens, UniProt O75795); experiment: Substrate activity at recombinant human UGT2B17 expressed in baculovirus infected insect cell membranes assessed as enzyme-mediated glucuronidation by measuring Vmax per mg protein at 50 uM preincubated for 5 mins followed by UDPGA addition and measured after 60 mins by LC-MS/MS analysis; type: ADME; conditions: 1 h
T2 sequence (O75795 whole entry): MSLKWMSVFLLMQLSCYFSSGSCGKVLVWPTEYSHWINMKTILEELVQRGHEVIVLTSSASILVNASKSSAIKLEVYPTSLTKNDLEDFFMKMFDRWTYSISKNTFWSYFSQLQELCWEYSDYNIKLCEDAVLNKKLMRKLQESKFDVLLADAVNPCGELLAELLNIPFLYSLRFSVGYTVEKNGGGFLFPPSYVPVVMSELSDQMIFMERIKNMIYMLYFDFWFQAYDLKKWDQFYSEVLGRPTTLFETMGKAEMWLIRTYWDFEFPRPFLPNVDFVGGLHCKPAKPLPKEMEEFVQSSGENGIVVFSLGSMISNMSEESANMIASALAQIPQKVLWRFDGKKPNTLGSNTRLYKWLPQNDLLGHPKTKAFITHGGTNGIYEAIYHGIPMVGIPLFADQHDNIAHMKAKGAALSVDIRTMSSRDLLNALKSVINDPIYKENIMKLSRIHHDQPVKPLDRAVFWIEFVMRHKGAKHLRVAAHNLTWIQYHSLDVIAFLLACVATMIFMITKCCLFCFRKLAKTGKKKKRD

[38] = molecular target: cGMP-dependent protein kinase 1 (Homo sapiens) (UniProt Q13976); experiment: Activity at human PKG1alpha at 10 uM
[39] = molecular target: Muscarinic acetylcholine receptor M2 (Homo sapiens) (UniProt P08172); experiment: Activity at human M2 receptor at 10 uM
[40] = Half life in Sprague-Dawley rat at 1 mg/kg, iv by UPLC-MS analysis; type: ADME, organism-based; conditions: in vivo

Activity [2]: inactive | Activity [3]: inactive | AUClast/dose [4]: 13 µM·h | Activity [5]: inactive | Activity [6]: inactive | Activity [7]: inactive | Activity [8]: inactive | AUClast/dose [9]: 31 µM·h | Activity [10]: inactive | Activity [11]: inactive | Cmax [12]: 2000 ng/mL | Activity [14]: inactive | inhibition (INH) [15]: Dose-dependent effect | Activity [16]: inactive | Activity [17]: inactive | Activity [18]: inactive | concentration at 24 h [19]: 490 ng/mL | concentration at 24 h [20]: 710 ng/mL | concentration at 24 h [22]: 570 ng/mL | Activity [23]: inactive | Activity [24]: inactive | Activity [25]: inactive | Activity [26]: inactive | Activity [27]: inactive | Activity [28]: inactive | Activity [29]: inactive | Activity [30]: Not Active | Activity [31]: inactive | Activity [33]: inactive | Activity [34]: inactive | Activity [35]: inactive | half-life [36]: 12.2 h | Vmax [37]: 4.7 pmol/min | Activity [38]: inactive | Activity [39]: inactive | half-life [40]: 1.4 h
Structure (SMILES): CS(=O)(=O)c1ccc(Oc2cc(F)cc(C#N)c2)c2c1[C@H](O)[C@H](F)[C@@H]2F [BELZUTIFAN]
Activity [1]: Active | Activity [13]: Not Active | pIC50 [21]: < 4.30 | Activity [32]: Not Active
